We go through 24 compounds from patent US10913727B2, “Modulators of the integrated stress pathway” (Calico Life Sciences LLC, priority 2016, dated 2021).

The subject of the experiment is HEK293T cells carrying the ATF4 luciferase reporter. The experiment can be described thus: ATF4-Luc assay, in vitro model of Vanishing Cell White Matter Disease (VWMD). Format: cell-based. Particulars: Homo sapiens, HEK-293T, 1 μg/mL tunicamycin, 7 hours, One Glo luminescence. The essentials:
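Reporter cells were stably generated by retroviral transduction and puromycin selection, then seeded at 30,000 cells/well. Next day, cells received 1 μg/mL tunicamycin with 200 nM test compound for 7 h, and luciferase luminescence was read with a one-step reagent. Values reported as EC50.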
A word on the EC50: it is the midpoint of the concentration-response curve. With `O=C(COc1ccc(Cl)c(F)c1)NC12CC(NC(=O)c3ccc(-c4ccccc4)cn3)(C1)C2` [Compound 928, N-{3-[2-(4-chloro-3-fluorophenoxy)acetamido]bicyclo[1.1.1]pentan-1-yl}-5-phenylpyridine-2-carboxamide], the EC50 was in the range of 50 to 250 nM.
In the case of `O=C(COc1ccc(Cl)c(F)c1)NC12CC(NC(=O)c3ccc4ncoc4c3)(C1)C2` [Compound 834, N-{3-[2-(4-chloro-3-fluorophenoxy)acetamido]bicyclo[1.1.1]pentan-1-yl}-1,3-benzoxazole-6-carboxamide] it was 250 to 1000 nM.
In the case of `Cc1scnc1C(=O)NC12CC(NC(=O)COc3ccc(Cl)c(F)c3)(C1)C2` [Compound 541, N-{3-[2-(4-chloro-3-fluorophenoxy)acetamido]bicyclo[1.1.1]pentan-1-yl}-5-methyl-1,3-thiazole-4-carboxamide] it was 1000 to 2000 nM.
As for `O=C(COc1ccc(Cl)c(F)c1)NC12CCC(NC(=O)c3ccccn3)(CC1)[C@@H](O)C2` [Compound 588, N-{(2S)-4-[2-(4-chloro-3-fluorophenoxy)acetamido]-2-hydroxybicyclo[2.2.2]octan-1-yl}pyridine-2-carboxamide], the figure is less than 50 nM; as for `O=C(COc1ccc(Cl)c(F)c1)NC12CC(NC(=O)c3cnc4ncccc4n3)(C1)C2` [Compound 864, N-{3-[2-(4-chloro-3-fluorophenoxy)acetamido]bicyclo[1.1.1]pentan-1-yl}pyrido[2,3-b]pyrazine-2-carboxamide], more than 2000 nM.
In the case of `O=C(COc1ccc(Cl)c(F)c1)NC12CCC(NC(=O)c3ccc(OC(F)(F)F)nc3)(C1)C2` [Compound 298, N-{4-[2-(4-chloro-3-fluorophenoxy)acetamido]bicyclo[2.1.1]hexan-1-yl}-6-(trifluoromethoxy)pyridine-3-carboxamide], the EC50 lay in the range of 50 to 250 nM.
In the case of `CCCOc1ccc(C(=O)NC23CC(NC(=O)COc4ccc(Cl)c(F)c4)(C2)C3)cc1` [Compound 316, N-{3-[2-(4-chloro-3-fluorophenoxy)acetamido]bicyclo[1.1.1]pentan-1-yl}-4-propoxybenzamide] it was 50 to 250 nM.
On to `O=C(COc1ccc(Cl)c(F)c1)NC12CC(NC(=O)c3ccc(CO)cn3)(C1)C2` [Compound 159, N-{3-[2-(4-chloro-3-fluorophenoxy)acetamido]bicyclo[1.1.1]pentan-1-yl}-5-(hydroxymethyl)pyridine-2-carboxamide], for which the EC50 is 250 to 1000 nM.
As for `Cc1cc(C(=O)NC23CC(NC(=O)COc4ccc(Cl)c(F)c4)(C2)C3)c(C)o1` [Compound 537, N-{3-[2-(4-chloro-3-fluorophenoxy)acetamido]bicyclo[1.1.1]pentan-1-yl}-2,5-dimethylfuran-3-carboxamide], the figure is 250 to 1000 nM.
Take `O=C(COc1ccc(Cl)c(F)c1)NC12CC(Nc3cncc(C(F)(F)F)n3)(C1)C2` [Compound 747, 2-(4-chloro-3-fluorophenoxy)-N-(3-{[6-(trifluoromethyl)pyrazin-2-yl]amino}bicyclo[1.1.1]pentan-1-yl)acetamide]: the 50% effective concentration (EC50) is more than 2000 nM.
Turning to `O=C(COc1ccc(Cl)c(F)c1)NC12CCC(NC(=O)c3ccc(OC(F)F)nc3)(C1)C2` [Compound 574, N-{4-[2-(4-chloro-3-fluorophenoxy)acetamido]bicyclo[2.1.1]hexan-1-yl}-6-(difluoromethoxy)pyridine-3-carboxamide], the EC50 lay in the range of 50 to 250 nM.
As for `COCc1cccc(C(=O)NC23CC(NC(=O)COc4ccc(Cl)c(F)c4)(C2)C3)n1` [Compound 174, N-{3-[2-(4-chloro-3-fluorophenoxy)acetamido]bicyclo[1.1.1]pentan-1-yl}-6-(methoxymethyl)pyridine-2-carboxamide], the figure is 250 to 1000 nM.
As for `O=C(COc1ccc(Cl)c(F)c1)NC12CC(Nc3ccc(C(F)(F)F)cn3)(C1)C2` [Compound 103, 2-(4-chloro-3-fluorophenoxy)-N-(3-{[5-(trifluoromethyl)pyridin-2-yl]amino}bicyclo[1.1.1]pentan-1-yl)acetamide], the figure is 1000 to 2000 nM; as for `O=C(COc1ccc(Cl)c(F)c1)NC12CC(NC(=O)c3ccc4snnc4c3)(C1)C2` [Compound 800, N-{3-[2-(4-chloro-3-fluorophenoxy)acetamido]bicyclo[1.1.1]pentan-1-yl}-1,2,3-benzothiadiazole-5-carboxamide], more than 2000 nM.
In the case of `O=C(COc1ccc(Cl)c(F)c1)NC12CC(Nc3cncc(C4CC4)n3)(C1)C2` [Compound 714, 2-(4-chloro-3-fluorophenoxy)-N-{3-[(6-cyclopropylpyrazin-2-yl)amino]bicyclo[1.1.1]pentan-1-yl}acetamide] it was 250 to 1000 nM.
For `Cc1cc(C(=O)NC23CCC(NC(=O)COc4ccc(Cl)c(F)c4)(CC2)C(O)C3)n(C)n1` (stereo not drawn) [Compound 447, N-{4-[2-(4-chloro-3-fluorophenoxy)acetamido]-3-hydroxybicyclo[2.2.2]octan-1-yl}-1,3-dimethyl-1H-pyrazole-5-carboxamide], the EC50 is 50 to 250 nM.
In the case of `COc1cc(C(=O)NC23CCC(NC(=O)COc4ccc(Cl)c(F)c4)(CC2)C(O)C3)on1` (stereo not drawn) [Compound 576, N-{4-[2-(4-chloro-3-fluorophenoxy)acetamido]-3-hydroxybicyclo[2.2.2]octan-1-yl}-3-methoxy-1,2-oxazole-5-carboxamide] it was 50 to 250 nM; in that of `O=C(COc1ccc(Cl)c(F)c1)NC12CCC(NC(=O)c3cc(C(F)F)no3)(CC1)C[C@@H]2O` [Compound 671, N-{(3S)-4-[2-(4-chloro-3-fluorophenoxy)acetamido]-3-hydroxybicyclo[2.2.2]octan-1-yl}-3-(difluoromethyl)-1,2-oxazole-5-carboxamide], less than 50 nM; in that of `O=C(COc1ccc(Cl)c(Cl)c1)NC12CC(NC(=O)c3cnoc3)(C1)C2` [Compound 921, N-{3-[2-(3,4-dichlorophenoxy)acetamido]bicyclo[1.1.1]pentan-1-yl}-1,2-oxazole-4-carboxamide], 1000 to 2000 nM.
As to `Cc1nnc(C(=O)NC23CCC(NC(=O)COc4ccc(Cl)c(F)c4)(CC2)C(O)C3)o1` (stereo not drawn) [Compound 516, N-{4-[2-(4-chloro-3-fluorophenoxy)acetamido]-3-hydroxybicyclo[2.2.2]octan-1-yl}-5-methyl-1,3,4-oxadiazole-2-carboxamide], the EC50 was in the range of 1000 to 2000 nM.
As for `Cc1ncc(C(=O)NC23CC(NC(=O)COc4ccc(Cl)c(Cl)c4)(C2)C3)o1` [Compound 675, N-{3-[2-(3,4-dichlorophenoxy)acetamido]bicyclo[1.1.1]pentan-1-yl}-2-methyl-1,3-oxazole-5-carboxamide], the figure is 50 to 250 nM; as for `Cc1nc(C(=O)NC23CCC(NC(=O)COc4ccc(Cl)c(F)c4)(CC2)C(O)C3)c(C)o1` (stereo not drawn) [Compound 472, N-{4-[2-(4-chloro-3-fluorophenoxy)acetamido]-3-hydroxybicyclo[2.2.2]octan-1-yl}-2,5-dimethyl-1,3-oxazole-4-carboxamide], 250 to 1000 nM.
As for `O=C(COc1ccc(Cl)c(F)c1)NC12CC(NC(=O)c3cccc(F)c3)(C1)C2` [Compound 508, N-{3-[2-(4-chloro-3-fluorophenoxy)acetamido]bicyclo[1.1.1]pentan-1-yl}-3-fluorobenzamide], the figure is 50 to 250 nM.
In the case of `COc1cncc(NC23CC(NC(=O)COc4ccc(Cl)c(F)c4)(C2)C3)n1` [Compound 756, 2-(4-chloro-3-fluorophenoxy)-N-{3-[(6-methoxypyrazin-2-yl)amino]bicyclo[1.1.1]pentan-1-yl}acetamide] it was 250 to 1000 nM.
